Measurements: ChEMBL document CHEMBL1201861, “Genomics of Drug Sensitity in Cancer screening data, Wellcome Trust Sanger Institute”

Key:
Assay in all cases: cells
ACHN = format: functional, cell-based, Homo sapiens; conditions: Homo sapiens, ACHN
Description: SANGER: Inhibition of human ACHN cell growth in a cell viability assay.

YAPC = format: functional, cell-based, Homo sapiens; conditions: Homo sapiens, YAPC
Description: SANGER: Inhibition of human YAPC cell growth in a cell viability assay.

HCC2218 = format: functional, cell-based; conditions: Homo sapiens
Description: SANGER: Inhibition of human HCC2218 cell growth in a cell viability assay.

NCI-H1693 = format: functional, cell-based, Homo sapiens; conditions: Homo sapiens, NCI-H1693
Description: SANGER: Inhibition of human NCI-H1693 cell growth in a cell viability assay.

BFTC-909 = format: functional, cell-based, Homo sapiens; conditions: Homo sapiens, BFTC-909
Description: SANGER: Inhibition of human BFTC-909 cell growth in a cell viability assay.

HEC-1 = format: functional, cell-based, Homo sapiens; conditions: Homo sapiens, HEC-1
Description: SANGER: Inhibition of human HEC-1 cell growth in a cell viability assay.

ASPC1 = format: functional, cell-based, Homo sapiens; conditions: Homo sapiens, ASPC1
Description: SANGER: Inhibition of human AsPC-1 cell growth in a cell viability assay.

DOK = format: functional, cell-based, Homo sapiens; conditions: Homo sapiens, DOK
Description: SANGER: Inhibition of human DOK cell growth in a cell viability assay.

LB831-BLC = format: functional, cell-based, Homo sapiens; conditions: Homo sapiens, LB831-BLC
Description: SANGER: Inhibition of human LB831-BLC cell growth in a cell viability assay.

HCT-116 = format: functional, cell-based, Homo sapiens; conditions: Homo sapiens, HCT-116
Description: SANGER: Inhibition of human HCT-116 cell growth in a cell viability assay.

LS-123 = format: functional, cell-based, Homo sapiens; conditions: Homo sapiens, LS-123
Mo = format: functional, cell-based; conditions: Homo sapiens
Description: SANGER: Inhibition of human Mo-T cell growth in a cell viability assay.

MFM-223 = format: functional, cell-based, Homo sapiens; conditions: Homo sapiens, MFM-223
Description: SANGER: Inhibition of human MFM-223 cell growth in a cell viability assay.

A673 = format: functional, cell-based, Homo sapiens; conditions: Homo sapiens, A673
Description: SANGER: Inhibition of human A673 cell growth in a cell viability assay.

FaDu = format: functional, cell-based, Homo sapiens; conditions: Homo sapiens, FaDu
Description: SANGER: Inhibition of human FADU cell growth in a cell viability assay.

CAS-1 = format: functional, cell-based, Homo sapiens; conditions: Homo sapiens, CAS-1
VM-CUB-1 = format: functional, cell-based; conditions: Homo sapiens
Description: SANGER: Inhibition of human VM-CUB-1 cell growth in a cell viability assay.

NTERA-2-cl-D1 = format: functional, cell-based, Homo sapiens; conditions: Homo sapiens, NTERA-2-cl-D1
Description: SANGER: Inhibition of human NTERA-S-cl-D1 cell growth in a cell viability assay.

EM-2 = format: functional, cell-based; conditions: Homo sapiens
Description: SANGER: Inhibition of human EM-2 cell growth in a cell viability assay.

no-10 = format: functional, cell-based, Homo sapiens; conditions: Homo sapiens
Description: SANGER: Inhibition of human no-10 cell growth in a cell viability assay.

HT-3 = format: functional, cell-based, Homo sapiens; conditions: Homo sapiens, HT-3
Description: SANGER: Inhibition of human HT-3 cell growth in a cell viability assay.

MOLT-4 = format: functional, cell-based; conditions: Homo sapiens
Description: SANGER: Inhibition of human MOLT-4 cell growth in a cell viability assay.

CAL-54 = format: functional, cell-based, Homo sapiens; conditions: Homo sapiens, CAL-54
Description: SANGER: Inhibition of human CAL-54 cell growth in a cell viability assay.

KGN = format: functional, cell-based, Homo sapiens; conditions: Homo sapiens, KGN
DOHH-2 = format: functional, cell-based; conditions: Homo sapiens
Description: SANGER: Inhibition of human DOHH-2 cell growth in a cell viability assay.

D-336MG = format: functional, cell-based, Homo sapiens; conditions: Homo sapiens, D-336MG
Description: SANGER: Inhibition of human D-336MG cell growth in a cell viability assay.

MDA-MB-231 = format: functional, cell-based, Homo sapiens; conditions: Homo sapiens, MDA-MB-231
Description: SANGER: Inhibition of human MDA-MB-231 cell growth in a cell viability assay.

SF-539 = format: functional, cell-based, Homo sapiens; conditions: Homo sapiens, SF-539
Description: SANGER: Inhibition of human SF539 cell growth in a cell viability assay.

HCC1419 = format: functional, cell-based, Homo sapiens; conditions: Homo sapiens, HCC1419
Description: SANGER: Inhibition of human HCC1419 cell growth in a cell viability assay.

EW-3 = format: functional, cell-based; conditions: Homo sapiens
Description: SANGER: Inhibition of human EW-3 cell growth in a cell viability assay.

KM12 = format: functional, cell-based, Homo sapiens; conditions: Homo sapiens, KM12
Description: SANGER: Inhibition of human KM12 cell growth in a cell viability assay.

GT3TKB = format: functional, cell-based, Homo sapiens; conditions: Homo sapiens, GT3TKB
Description: SANGER: Inhibition of human GT3TKB cell growth in a cell viability assay.

RPMI-7951 = format: functional, cell-based, Homo sapiens; conditions: Homo sapiens, RPMI-7951
Description: SANGER: Inhibition of human RPMI-7951 cell growth in a cell viability assay.

HuP-T3 = format: functional, cell-based, Homo sapiens; conditions: Homo sapiens, HuP-T3
Description: SANGER: Inhibition of human HuP-T3 cell growth in a cell viability assay.

SK-MEL-2 = format: functional, cell-based, Homo sapiens; conditions: Homo sapiens, SK-MEL-2
Description: SANGER: Inhibition of human SK-MEL-2 cell growth in a cell viability assay.

SK-MEL-1 = format: functional, cell-based; conditions: Homo sapiens
Description: SANGER: Inhibition of human SK-MEL-1 cell growth in a cell viability assay.

BT-20 = format: functional, cell-based, Homo sapiens; conditions: Homo sapiens, BT-20
Description: SANGER: Inhibition of human BT-20 cell growth in a cell viability assay.

HGC-27 = format: functional, cell-based, Homo sapiens; conditions: Homo sapiens, HGC-27
Description: SANGER: Inhibition of human HGC-27 cell growth in a cell viability assay.

T98G = format: functional, cell-based, Homo sapiens; conditions: Homo sapiens, T98G
Description: SANGER: Inhibition of human T98G cell growth in a cell viability assay.

LNCaP-Clone-FGC = format: functional, cell-based, Homo sapiens; conditions: Homo sapiens, LNCaP-Clone-FGC
Description: SANGER: Inhibition of human LNCaP-Clone-FGC cell growth in a cell viability assay.

CW-2 = format: functional, cell-based, Homo sapiens; conditions: Homo sapiens, CW-2
Description: SANGER: Inhibition of human CW-2 cell growth in a cell viability assay.

HO-1-N-1 = format: functional, cell-based, Homo sapiens; conditions: Homo sapiens, HO-1-N-1
Description: SANGER: Inhibition of human HO-1-N-1 cell growth in a cell viability assay.

MC116 = format: functional, cell-based; conditions: Homo sapiens
Description: SANGER: Inhibition of human MC116 cell growth in a cell viability assay.

NCI-H2087 = format: functional, cell-based, Homo sapiens; conditions: Homo sapiens, NCI-H2087
Description: SANGER: Inhibition of human NCI-H2087 cell growth in a cell viability assay.

OCI-AML2 = format: functional, cell-based; conditions: Homo sapiens
Description: SANGER: Inhibition of human OCI-AML2 cell growth in a cell viability assay.

SNU-5 = format: functional, cell-based; conditions: Homo sapiens
Description: SANGER: Inhibition of human NCI-SNU-5 cell growth in a cell viability assay.

SK-NEP-1 = format: functional, cell-based; conditions: Homo sapiens
Description: SANGER: Inhibition of human SK-NEP-1 cell growth in a cell viability assay.

G-402 = format: functional, cell-based, Homo sapiens; conditions: Homo sapiens, G-402
Description: SANGER: Inhibition of human G-402 cell growth in a cell viability assay.

8305C = format: functional, cell-based, Homo sapiens; conditions: Homo sapiens, 8305C
Description: SANGER: Inhibition of human 8305C cell growth in a cell viability assay.

A204 = format: functional, cell-based, Homo sapiens; conditions: Homo sapiens, A204
Description: SANGER: Inhibition of human A204 cell growth in a cell viability assay.

SK-MES-1 = format: functional, cell-based, Homo sapiens; conditions: Homo sapiens, SK-MES-1
Description: SANGER: Inhibition of human SK-MES-1 cell growth in a cell viability assay.

C2BBe1 = format: functional, cell-based, Homo sapiens; conditions: Homo sapiens, C2BBe1
Description: SANGER: Inhibition of human C2BBe1 cell growth in a cell viability assay.

## CN(C)C/C=C/C(=O)Nc1cc2c(Nc3ccc(F)c(Cl)c3)ncnc2cc1O[C@H]1CCOC1 [AFATINIB]
ACHN
  IC50: 320 nM
YAPC
  IC50: > 500 nM
HCC2218
  IC50: 9.87 nM
NCI-H1693
  IC50: > 500 nM
BFTC-909
  IC50: > 500 nM
HEC-1
  IC50: > 500 nM
ASPC1
  IC50: > 500 nM
DOK
  IC50: 31.9 nM
LB831-BLC
  IC50: > 500 nM
HCT-116
  IC50: > 500 nM
LS-123
  IC50: > 500 nM
Mo
  IC50: > 500 nM
MFM-223
  IC50: > 500 nM
A673
  IC50: > 500 nM
FaDu
  IC50: > 500 nM
CAS-1
  IC50: > 500 nM
VM-CUB-1
  IC50: > 500 nM
NTERA-2-cl-D1
  IC50: > 500 nM
EM-2
  IC50: > 500 nM
no-10
  IC50: > 500 nM
HT-3
  IC50: > 500 nM
MOLT-4
  IC50: > 500 nM
CAL-54
  IC50: > 500 nM
KGN
  IC50: > 500 nM
DOHH-2
  IC50: > 500 nM
D-336MG
  IC50: > 500 nM
MDA-MB-231
  IC50: > 500 nM
SF-539
  IC50: > 500 nM
HCC1419
  IC50: 364 nM
EW-3
  IC50: > 500 nM
KM12
  IC50: > 500 nM
GT3TKB
  IC50: > 500 nM
RPMI-7951
  IC50: > 500 nM
HuP-T3
  IC50: > 500 nM
SK-MEL-2
  IC50: > 500 nM
SK-MEL-1
  IC50: > 500 nM
BT-20
  IC50: > 500 nM
HGC-27
  IC50: > 500 nM
T98G
  IC50: > 500 nM
LNCaP-Clone-FGC
  IC50: > 500 nM
CW-2
  IC50: 469 nM
HO-1-N-1
  IC50: 279 nM
MC116
  IC50: > 500 nM
NCI-H2087
  IC50: > 500 nM
OCI-AML2
  IC50: > 500 nM
SNU-5
  IC50: > 500 nM
SK-NEP-1
  IC50: > 500 nM
G-402
  IC50: > 500 nM
8305C
  IC50: > 500 nM
A204
  IC50: > 500 nM
SK-MES-1
  IC50: > 500 nM
C2BBe1
  IC50: > 500 nM

## CN(c1ncccc1CNc1nc(Nc2ccc3c(c2)CC(=O)N3)ncc1C(F)(F)F)S(C)(=O)=O [PF-00562271]
ACHN
  IC50: > 2560 nM
YAPC
  IC50: > 2560 nM
HCC2218
  IC50: > 2560 nM
NCI-H1693
  IC50: > 2560 nM
BFTC-909
  IC50: > 2560 nM
HEC-1
  IC50: > 2560 nM
ASPC1
  IC50: > 2560 nM
DOK
  IC50: > 2560 nM
LB831-BLC
  IC50: 2010 nM
HCT-116
  IC50: > 2560 nM
LS-123
  IC50: > 2560 nM
Mo
  IC50: > 2560 nM
MFM-223
  IC50: > 2560 nM
A673
  IC50: > 2560 nM
FaDu
  IC50: > 2560 nM
CAS-1
  IC50: > 2560 nM
VM-CUB-1
  IC50: > 2560 nM
NTERA-2-cl-D1
  IC50: > 2560 nM
EM-2
  IC50: > 2560 nM
no-10
  IC50: > 2560 nM
HT-3
  IC50: > 2560 nM
MOLT-4
  IC50: > 2560 nM
CAL-54
  IC50: > 2560 nM
KGN
  IC50: > 2560 nM
DOHH-2
  IC50: > 2560 nM
D-336MG
  IC50: 1860 nM
MDA-MB-231
  IC50: 2500 nM
SF-539
  IC50: > 2560 nM
HCC1419
  IC50: > 2560 nM
EW-3
  IC50: > 2560 nM
KM12
  IC50: 386 nM
GT3TKB
  IC50: > 2560 nM
RPMI-7951
  IC50: > 2560 nM
HuP-T3
  IC50: > 2560 nM
SK-MEL-2
  IC50: > 2560 nM
SK-MEL-1
  IC50: > 2560 nM
BT-20
  IC50: > 2560 nM
HGC-27
  IC50: > 2560 nM
T98G
  IC50: > 2560 nM
LNCaP-Clone-FGC
  IC50: > 2560 nM
CW-2
  IC50: > 2560 nM
HO-1-N-1
  IC50: > 2560 nM
MC116
  IC50: > 2560 nM
NCI-H2087
  IC50: > 2560 nM
OCI-AML2
  IC50: > 2560 nM
SNU-5
  IC50: > 2560 nM
SK-NEP-1
  IC50: > 2560 nM
G-402
  IC50: > 2560 nM
8305C
  IC50: 1100 nM
A204
  IC50: > 2560 nM
SK-MES-1
  IC50: > 2560 nM
C2BBe1
  IC50: > 2560 nM
